Measured values taken from PubChem BioAssay AID330 (DTP/NCI, 2004).
Where “and” joins values, the source holds several entries; their conditions need not be identical. Equal entries are not always repeated. Inconclusive results and toxic doses are left out.

System: P388 leukemia ip, CD2F1 mice, survival T/C
Assay: NCI In Vivo Anticancer Drug Screen. Data for tumor model P388 Leukemia (intraperitoneal) in CD2F1 (CDF1) mice
Conditions: endpoint: median survival time, higher = longer survival
Outline: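 Mice carrying the transplanted tumor received test compound or vehicle. Survival was recorded in each group, and the value is the treated-group measurement divided by that of the vehicle-treated control group.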

[1] = dose: 60.0 mg/kg/injection, schedule: Q01DX005 (ip), vehicle: Klucel (hydroxypropylcellulose) (HPC)
[2] = dose: 120.0 mg/kg/injection, schedule: Q01DX005 (ip), vehicle: Klucel (hydroxypropylcellulose) (HPC)
[3] = dose: 240.0 mg/kg/injection, schedule: Q01DX005 (ip), vehicle: Klucel (hydroxypropylcellulose) (HPC)
[4] = dose: 50.0 mg/kg/injection, schedule: Q01DX009 (ip), vehicle: Klucel (hydroxypropylcellulose) (HPC)
[5] = dose: 100.0 mg/kg/injection, schedule: Q01DX009 (ip), vehicle: Klucel (hydroxypropylcellulose) (HPC)
[6] = dose: 50.0 mg/kg/injection, schedule: Q01DX005 (ip), vehicle: Klucel (hydroxypropylcellulose) (HPC)
[7] = dose: 100.0 mg/kg/injection, schedule: Q01DX005 (ip), vehicle: Klucel (hydroxypropylcellulose) (HPC)
[8] = dose: 200.0 mg/kg/injection, schedule: Q01DX005 (ip), vehicle: Klucel (hydroxypropylcellulose) (HPC)
[9] = dose: 50.0 mg/kg/injection, schedule: Q01DX005 (ip), vehicle: saline
[10] = dose: 100.0 mg/kg/injection, schedule: Q01DX005 (ip), vehicle: saline
[11] = dose: 200.0 mg/kg/injection, schedule: Q01DX005 (ip), vehicle: saline
[12] = dose: 100.0 mg/kg/injection, schedule: Q04DX003 (ip), vehicle: saline
[13] = dose: 60.0 mg/kg/injection, schedule: Q01DX005 (ip), vehicle: saline with Tween-80
[14] = dose: 120.0 mg/kg/injection, schedule: Q01DX005 (ip), vehicle: saline with Tween-80
[15] = dose: 240.0 mg/kg/injection, schedule: Q01DX005 (ip), vehicle: saline with Tween-80
[16] = dose: 100.0 mg/kg/injection, schedule: Q04DX003 (ip), vehicle: saline with Tween-80
[17] = dose: 200.0 mg/kg/injection, schedule: Q04DX003 (ip), vehicle: saline with Tween-80
[18] = dose: 60.0 mg/kg/injection, schedule: Q01DX005 (ip), vehicle: saline
[19] = dose: 120.0 mg/kg/injection, schedule: Q01DX005 (ip), vehicle: saline
[20] = dose: 240.0 mg/kg/injection, schedule: Q01DX005 (ip), vehicle: saline

In the case of `O=C(Cn1nnc(N2CCOCC2)n1)N/N=C/c1ccccc1Cl`, the T/C [1] is reported as 91 % of control, the T/C [2] is reported as 87 % of control and the T/C [3] is reported as 87 % of control.
`CC/C=c1/[nH]c(=O)/c(=C\c2ccc([N+](=O)[O-])cc2)[nH]c1=O` was tested, and the T/C (dose: 25.0 mg/kg/injection, schedule: Q01DX009 (ip), vehicle: Klucel (hydroxypropylcellulose) (HPC)) was 90 % of control, the T/C [4] was 87 % of control and 91 % of control and the T/C [5] was 86 % of control. The T/C (dose: 200.0 mg/kg/injection, schedule: Q01DX009 (ip), vehicle: Klucel (hydroxypropylcellulose) (HPC)) was 94 % of control.
`CC1CCC2N(C1)CC1C3(O)CC4(O)C(CCC5C(=O)C(O)CCC54C)C3(O)CC(O)C1(O)C2(C)O` (stereo not drawn) was tested, and the T/C (dose: 1.87 mg/kg/injection, schedule: Q01DX005 (ip), vehicle: Klucel (hydroxypropylcellulose) (HPC)) was 96 % of control, the T/C (dose: 3.75 mg/kg/injection, schedule: Q01DX005 (ip), vehicle: Klucel (hydroxypropylcellulose) (HPC)) was 97 % of control and the T/C (dose: 7.5 mg/kg/injection, schedule: Q01DX005 (ip), vehicle: Klucel (hydroxypropylcellulose) (HPC)) was 99 % of control and 97 % of control.
With `N=C(N)Sc1cc(Br)c[n+]([O-])c1` the T/C [6] was 104 % of control, the T/C [7] was 102 % of control and the T/C [8] was 100 % of control.
In the case of `N#CC1CCCC(C#N)N1` (stereo not drawn), the T/C (dose: 6.25 mg/kg/injection, schedule: Q01DX005 (ip), vehicle: saline) is reported as 100 % of control, the T/C (dose: 12.5 mg/kg/injection, schedule: Q01DX005 (ip), vehicle: saline) is reported as 88 % of control and the T/C (dose: 25.0 mg/kg/injection, schedule: Q01DX005 (ip), vehicle: saline) is reported as 100 % of control.
With `COc1ccc(CCNC2=CNCC2)cc1OC` the T/C [9] was 101 % of control, the T/C [10] was 98 % of control and the T/C [11] was 95 % of control.
With `NCCc1c[nH]c2ccc(OCc3ccccc3)cc12` the T/C (dose: 50.0 mg/kg/injection, schedule: Q04DX003 (ip), vehicle: saline) was 109 % of control and the T/C [12] was 116 % of control.
With `CC(C)N(C(=O)SCC(Cl)=C(Cl)Cl)C(C)C` the T/C [13] was 100 % of control, the T/C [14] was 103 % of control and the T/C [15] was 102 % of control.
In the case of `Cc1cc2c(=O)cc(-c3ccccc3)oc2c(C#N)c1C`, the T/C [1] is reported as 99 % of control, the T/C [2] is reported as 94 % of control and the T/C [3] is reported as 93 % of control.
For `O.O.O=S(=O)(O)C(F)(F)F.[NH2-].[NH2-].[NH2-].[NH2-].[Ru+3]`, the T/C (dose: 12.5 mg/kg/injection, schedule: Q04DX003 (ip), vehicle: saline) was 115 % of control, the T/C (dose: 25.0 mg/kg/injection, schedule: Q04DX003 (ip), vehicle: saline) was 124 % of control and the T/C [12] was 157 % of control.
For `CC1(C)N=C(N)N=C(N)N1c1ccc(CNC(=O)Nc2cccc(S(=O)(=O)F)c2)cc1`, the T/C [12] was 154 % of control, the T/C (dose: 150.0 mg/kg/injection, schedule: Q04DX003 (ip), vehicle: saline) was 168 % of control and the T/C (dose: 225.0 mg/kg/injection, schedule: Q04DX003 (ip), vehicle: saline) was 200 % of control.
`CC1Cc2ccc(OCCN(C)C)cc2C1O` (stereo not drawn) was tested, and the T/C [9] was 104 % of control, the T/C [10] was 102 % of control and the T/C [11] was 104 % of control.
`C=CC[Si](CC=C)(c1ccccc1)c1ccccc1` was tested, and the T/C (dose: 6.25 mg/kg/injection, schedule: Q01DX009 (ip), vehicle: saline) was 99 % of control and 96 % of control (2×) and the T/C (dose: 200.0 mg/kg/injection, schedule: Q01DX009 (ip), vehicle: saline) was 98 % of control.
In the case of `Cc1[nH]c2ccc(N(C)C)cc2c(=O)c1CNCc1ccccc1`, the T/C (dose: 1.56 mg/kg/injection, schedule: Q01DX009 (ip), vehicle: saline with Tween-80) is reported as 114 % of control, the T/C (dose: 3.13 mg/kg/injection, schedule: Q01DX009 (ip), vehicle: saline with Tween-80) is reported as 107 % of control and the T/C (dose: 6.25 mg/kg/injection, schedule: Q01DX009 (ip), vehicle: saline with Tween-80) is reported as 103 % of control and 96 % of control.
In the case of `Cc1c(N)n[nH]c1-c1ccccc1`, the T/C (dose: 50.0 mg/kg/injection, schedule: Q01DX001 (ip), vehicle: Klucel (hydroxypropylcellulose) (HPC)) is reported as 100 % of control, the T/C (dose: 100.0 mg/kg/injection, schedule: Q01DX001 (ip), vehicle: Klucel (hydroxypropylcellulose) (HPC)) is reported as 99 % of control and the T/C (dose: 200.0 mg/kg/injection, schedule: Q01DX001 (ip), vehicle: Klucel (hydroxypropylcellulose) (HPC)) is reported as 106 % of control.
With `COc1ccc(Nc2nnc(-c3ccc4c(c3)OCO4)o2)cc1` the T/C [6] was 100 % of control, the T/C [7] was 93 % of control and the T/C [8] was 97 % of control.
For `CSc1nc(N)c(I)c(Cl)n1`, the T/C (dose: 50.0 mg/kg/injection, schedule: Q04DX003 (ip), vehicle: saline with Tween-80) was 100 % of control, the T/C (dose: 100.0 mg/kg/injection, schedule: Q01DX001 (ip), vehicle: saline) was 110 % of control and the T/C [16] was 102 % of control. The T/C (dose: 200.0 mg/kg/injection, schedule: Q01DX001 (ip), vehicle: saline) was 113 % of control, the T/C [17] was 93 % of control and the T/C (dose: 400.0 mg/kg/injection, schedule: Q01DX001 (ip), vehicle: saline) was 110 % of control.
In the case of `CCOC(=O)C1=NN(c2ccccc2)C(C(=O)OC)[C@@H]1C(=O)OC` (stereo partly drawn), the T/C [13] is reported as 99 % of control, the T/C [14] is reported as 98 % of control and the T/C [15] is reported as 96 % of control.
In the case of `Cc1cccc(C)c1NC(=S)N1CCC(CCCC2CCN(C(=S)Nc3c(C)cccc3C)CC2)CC1`, the T/C [16] is reported as 86 % of control and the T/C [17] is reported as 86 % of control.
For `O=C1OC2C(O)COC23OC(O)CCC13O` (stereo not drawn), the T/C (dose: 15.0 mg/kg/injection, schedule: Q01DX005 (ip), vehicle: saline with Tween-80) was 100 % of control, the T/C (dose: 30.0 mg/kg/injection, schedule: Q01DX005 (ip), vehicle: saline with Tween-80) was 102 % of control and the T/C [13] was 102 % of control. For the same compound, the T/C [18] was 104 % of control, the T/C [14] was 105 % of control and the T/C [19] was 102 % of control. For the same compound, the T/C [15] was 105 % of control and the T/C [20] was 102 % of control.
In the case of `COC(=O)Nc1nc2ccc(SC)cc2c(=O)[nH]1`, the T/C [4] is reported as 103 % of control and 105 % of control and the T/C [5] is reported as 113 % of control.
`CC(C(O)c1cc2c(c3ccccc13)CCCC2)N1CCOCC1` (stereo not drawn) was tested, and the T/C (dose: 100.0 mg/kg/injection, schedule: Q01DX009 (ip), vehicle: suspension in saline) was 104 % of control, the T/C (dose: 200.0 mg/kg/injection, schedule: Q01DX009 (ip), vehicle: suspension in saline) was 99 % of control and the T/C (dose: 400.0 mg/kg/injection, schedule: Q01DX009 (ip), vehicle: suspension in saline) was 104 % of control.
With `O=NNc1c2ccccc2nc2ccccc12` the T/C (dose: 0.09 mg/kg/injection, schedule: Q01DX009 (ip), vehicle: water) was 99 % of control, the T/C (dose: 0.18 mg/kg/injection, schedule: Q01DX009 (ip), vehicle: water) was 95 % of control and the T/C (dose: 0.37 mg/kg/injection, schedule: Q01DX009 (ip), vehicle: water) was 101 % of control. For the same compound, the T/C (dose: 0.75 mg/kg/injection, schedule: Q01DX009 (ip), vehicle: water) was 104 % of control and the T/C (dose: 1.5 mg/kg/injection, schedule: Q01DX009 (ip), vehicle: water) was 86 % of control.
For `Cc1cc(-c2cc(C)on2)no1`, the T/C [18] was 103 % of control, the T/C [19] was 103 % of control and the T/C [20] was 103 % of control.
In the case of `COc1cc(Br)c(C(=O)N2CCc3cc([N+](=O)[O-])ccc32)cc1OC`, the T/C (dose: 25.0 mg/kg/injection, schedule: Q01DX009 (ip), vehicle: other) is reported as 101 % of control, the T/C (dose: 50.0 mg/kg/injection, schedule: Q01DX009 (ip), vehicle: other) is reported as 93 % of control and the T/C (dose: 100.0 mg/kg/injection, schedule: Q01DX009 (ip), vehicle: other) is reported as 89 % of control. For the same compound, the T/C (dose: 200.0 mg/kg/injection, schedule: Q01DX009 (ip), vehicle: other) was 87 % of control.
With `CC(C)NCC(O)COc1cccc2ccccc12` (stereo not drawn) the T/C (dose: 4.0 mg/kg/injection, schedule: Q01DX009 (ip), vehicle: Klucel (hydroxypropylcellulose) (HPC)) was 97 % of control, the T/C (dose: 8.0 mg/kg/injection, schedule: Q01DX009 (ip), vehicle: Klucel (hydroxypropylcellulose) (HPC)) was 98 % of control and the T/C (dose: 16.0 mg/kg/injection, schedule: Q01DX009 (ip), vehicle: Klucel (hydroxypropylcellulose) (HPC)) was 100 % of control. The T/C (dose: 32.0 mg/kg/injection, schedule: Q01DX009 (ip), vehicle: Klucel (hydroxypropylcellulose) (HPC)) was 95 % of control and the T/C (dose: 64.0 mg/kg/injection, schedule: Q01DX009 (ip), vehicle: Klucel (hydroxypropylcellulose) (HPC)) was 113 % of control.
